We go through 1 molecule from US12109294B2, “Oily moisturizer and topical skin composition containing same” (The Nisshin OilliO Group, Ltd., priority 2018, dated 2024).

The test system of the test is skin stratum corneum (forearm). As to the kind of experiment: Evaluation test of moisture retention effect upon single application of esterified product (stratum corneum moisture content, SKICON-200). Type of test: in vivo, human.

Source text: The moisture content of the stratum corneum can be investigated using the electrical conductivity (μS) of the stratum corneum. The electrical conductivity (μS) of the stratum corneum is dependent on the water content of the stratum corneum, and the greater the moisture content of the stratum corneum, the larger the electrical conductivity (μS) of the stratum corneum becomes. The electrical conductivity (μS) of the stratum corneum can be measured by a constant-pressure sensor probe contact high-frequency conductance exchange method. Specifically, the electrical conductivity (μS) of the stratum corneum can be measured by using a stratum corneum moisture content measuring device based on the above measurement method, such as a stratum comeum moisture content measuring device “SKICON-200” manufactured by IBS Co., Ltd.
After maintaining the state with the oily moisturizer applied to the skin for a certain period, for example 30 to 90 minutes, the oily moisturizer is removed from the skin surface. […] Using the obtained values for the electrical conductivity (uS) of the stratum corneum before and after application of the oily moisturizer, the moisture retention effect value is calculated and the moisture retention effect is evaluated. […]
Subsequently, 40 μL of the test sample being evaluated was applied uniformly to the square measurement region of the forearm. […]

In the case of `OCC(O)CO` [glycerol], the “Increase in the electrical conductivity that corresponds with the moisture retention effect value” (60 minutes after application, still applied to the skin surface, prior to removal using water) came out at 477 μS. Besides, the “Moisture retention effect value” (single application, removal with cotton swab immersed in water rather than hexane) turned out to be 8 μS.
